The values below come from patent US20260201008A1, “SECRETIN-DERIVED GLP1R SELECTIVE AGONISTS” (GUBRA A/S, priority 2023, published 2026).

Molecules are shown by their SMILES. Read-outs that look alike come from different tables or passages of the source. Numbered stars: 1 amine (or outer) side, 2 acyl side, 3 side chain; on linkers, the order of the positions; unused ones are H or OH. Square brackets hold non-standard residues; d marks the D form. Side chains are listed from the residue outwards. Peptide text beside a SMILES is read from it. * marks the point of attachment. C20 diacid = O=C(O)CCCCCCCCCCCCCCCCCCC(=O)*; γGlu = O=C(O)[C@H](CCC(=O)[*:2])N[*:1]; AEEA = NCCOCCOCC(=O)O; Aib = CC(C)(N)C(=O)O

The nature of series [1]: Turbidity of crude library peptides (absorbance at 600 nm). It counts as physicochemical. The settings on record: Physical stability of peptides. A digest of the protocol: (§1)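 Values reflect mean ThT emission (ex 450, em 480 nm) over 72 h at 40° C, read every 10 min after 5 min shaking at 700 rpm, plus a single initial absorbance at 600 nm for turbidity. Peptides were at 267 μM, pH 4.0 acetate or pH 7.0 phosphate (50 mM), with 4 μM ThT.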

The nature of series [2]: Fibril formation of crude library peptides (Thioflavin T). It is filed as physicochemical. The settings on record: Physical stability of peptides. Also on record: key: average ThT fluorescence emission at 480 nm (ex 450 nm), raw units. A digest of the protocol: as §1
The target of another series is GLP1R (Homo sapiens, UniProt P43220). Briefly: hGLP1R potency, cAMP accumulation in CHO-K1 cells stably overexpressing hGLP1R. It counts as cell-based. Also on record: host or cells: CHO-K1. The following applies: for Selectivity: SCTR EC50/GLP1R EC50 ratio; for EC50: cAMP accumulation; for SCTR EC50/GLP1R EC50 ratio: cAMP accumulation in CHO-K1 cells. A digest of the protocol:
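Potency reflects cAMP accumulation measured by time-resolved fluorescence energy transfer after a 30 min room-temperature stimulation in IBMX-containing (0.5 mM) DPBS with casein. Purified peptides were tested in duplicate over eleven threefold dilutions, and EC50 was obtained from sigmoid concentration-response fitting.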

The target of a further series is SCTR (Homo sapiens, UniProt P47872). The series can be described thus: hSCTR potency, cAMP accumulation in CHO-K1 cells stably overexpressing hSCTR. The settings on record: cAMP accumulation. Also on record: alternatively Euroscreen ES-712-AF; FAST-0161L; host or cells: CHO-K1. It is filed as cell-based. The method in brief: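 Potency reflects cAMP accumulation after 30 min agonist exposure at room temperature in hSCTR-expressing CHO-K1 cells, with 0.5 mM IBMX present to block phosphodiesterase. EC50 was derived by nonlinear regression.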
Chain of SCTR (P47872 23-440): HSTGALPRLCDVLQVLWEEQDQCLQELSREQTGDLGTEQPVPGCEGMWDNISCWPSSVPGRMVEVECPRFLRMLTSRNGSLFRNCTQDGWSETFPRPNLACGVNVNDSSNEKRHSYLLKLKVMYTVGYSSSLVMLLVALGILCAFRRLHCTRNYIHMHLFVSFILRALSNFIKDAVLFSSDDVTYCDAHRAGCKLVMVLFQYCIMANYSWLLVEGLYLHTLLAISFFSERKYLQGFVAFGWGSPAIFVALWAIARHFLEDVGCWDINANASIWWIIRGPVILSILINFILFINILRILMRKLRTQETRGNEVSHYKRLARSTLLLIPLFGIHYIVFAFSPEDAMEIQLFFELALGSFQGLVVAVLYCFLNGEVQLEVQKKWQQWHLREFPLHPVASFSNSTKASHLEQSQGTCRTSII

[3] abbreviates: CHO-K1 cells overexpressing hGLP1R, read-out: pEC50 hGLPR1 (converted).
[4] abbreviates: CHO-K1 cells overexpressing hSCTR, read-out: pEC50 hSCTR (converted).
Where [5] appears, read: CHO-K1 cells stably overexpressing hGLP1R, read-out: hGLP1R potency (pEC50) (converted).
The mark [6] stands for this setting: selectivity ratio, hSCTR vs hGLP1R.
Where [7] appears, read: CHO-K1 cells stably overexpressing hSCTR, read-out: hSCTR potency (pEC50) (converted).
The mark [8] stands for this setting: CHO-K1 cells overexpressing hGLP1R, read-out: hGLP1R pEC50 (converted).
Setting [9] is: selectivity for hGLP1R over hSCTR.
The mark [10] stands for this setting: CHO-K1 cells overexpressing hSCTR, read-out: hSCTR pEC50 (converted).

Chain of GLP1R (P43220 24-463): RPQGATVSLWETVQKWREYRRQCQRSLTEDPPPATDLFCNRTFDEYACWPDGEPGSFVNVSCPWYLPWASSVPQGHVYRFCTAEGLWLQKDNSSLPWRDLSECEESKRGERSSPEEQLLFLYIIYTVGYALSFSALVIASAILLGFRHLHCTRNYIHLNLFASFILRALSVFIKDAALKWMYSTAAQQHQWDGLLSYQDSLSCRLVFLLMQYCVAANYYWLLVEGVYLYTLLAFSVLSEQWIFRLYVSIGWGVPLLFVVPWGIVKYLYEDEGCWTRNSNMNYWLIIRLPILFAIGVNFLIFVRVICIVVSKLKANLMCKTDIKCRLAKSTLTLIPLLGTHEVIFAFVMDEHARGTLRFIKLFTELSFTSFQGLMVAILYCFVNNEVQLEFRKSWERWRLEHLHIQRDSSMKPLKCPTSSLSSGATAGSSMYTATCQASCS

In the case of `CC(C)C[C@H](NC(=O)[C@H](Cc1ccccc1)NC(=O)[C@H](CCCNC(=N)N)NC(=O)[C@H](CCC(N)=O)NC(=O)[C@H](C)NC(=O)[C@H](C)NC(=O)[C@H](C)NC(=O)C(C)(C)NC(=O)[C@H](CCC(=O)O)NC(=O)[C@H](CCCCNC(=O)COCCOCCNC(=O)COCCOCCNC(=O)CC[C@H](NC(=O)CCCCCCCCCCCCCCCCCCC(=O)O)C(=O)O)NC(=O)[C@H](CC(C)C)NC(=O)[C@H](CCCNC(=N)N)NC(=O)[C@H](CO)NC(=O)[C@@H](NC(=O)[C@H](CC(=O)O)NC(=O)[C@H](CO)NC(=O)[C@@H](NC(=O)[C@H](Cc1ccccc1)NC(=O)[C@@H](NC(=O)CNC(=O)[C@H](CCC(=O)O)NC(=O)C(C)(C)NC(=O)[C@@H](N)Cc1c[nH]cn1)[C@@H](C)O)[C@@H](C)O)C(C)C)C(=O)N[C@@H](CCC(=O)O)C(=O)N[C@@H](Cc1c[nH]cn1)C(=O)N[C@@H](CC(C)C)C(=O)N[C@H](C(N)=O)C(C)C` [compound 81] (H-H[Aib]EGTFTSDVSRLK([AEEA-AEEA-γGlu-C20 diacid])E[Aib]AAAQRFLEHLV-NH2), the “Turbidity (pH 7)” value in series [1] is 0.08. This compound showed a Fibril formation in series [2] of 10620. Further, the Selectivity on GLP1R turned out to be 1217. Besides, the values for the EC50 on GLP1R (setting [3]) and at SCTR (setting [4]) were 0.0794 nM and 79.4 nM, respectively.

For the compound `CC[C@H](C)[C@H](NC(=O)[C@H](Cc1ccccc1)NC(=O)[C@H](CCCNC(=N)N)NC(=O)[C@H](CCC(N)=O)NC(=O)[C@H](CC(C)C)NC(=O)[C@H](C)NC(=O)[C@H](C)NC(=O)CNC(=O)[C@H](CCC(=O)O)NC(=O)[C@H](CC(C)C)NC(=O)[C@H](CC(C)C)NC(=O)[C@H](Cc1ccc(O)cc1)NC(=O)[C@H](CO)NC(=O)[C@H](Cc1c[nH]c2ccccc12)NC(=O)[C@H](CC(=O)O)NC(=O)[C@H](CO)NC(=O)[C@@H](NC(=O)[C@H](Cc1ccccc1)NC(=O)[C@@H](NC(=O)CNC(=O)[C@H](CCC(=O)O)NC(=O)C(C)(C)NC(=O)[C@@H](N)Cc1c[nH]cn1)[C@@H](C)O)[C@@H](C)O)C(=O)N[C@@H](CCC(N)=O)C(=O)N[C@@H](Cc1c[nH]c2ccccc12)C(=O)N[C@@H](CC(C)C)C(=O)N[C@H](C(N)=O)C(C)C` [compound 189] (H-H[Aib]EGTFTSDWSYLLEGAALQRFIQWLV-NH2), in series [1], the “Turbidity (pH 7)” value was 0.37. This compound came in with a Fibril formation in series [2] of 94029. For the same compound, the EC50 on GLP1R (setting [5]) was 0.0158 nM; at SCTR (setting [7]), 158 nM. In addition, the “SCTR EC50/GLP1R EC50 ratio” value on GLP1R (setting [6]) came to 10195.

As for `CC[C@H](C)[C@H](NC(=O)[C@H](Cc1ccccc1)NC(=O)[C@H](CCCNC(=N)N)NC(=O)[C@H](CCC(N)=O)NC(=O)[C@H](CC(C)C)NC(=O)[C@H](C)NC(=O)[C@H](C)NC(=O)CNC(=O)[C@H](CCC(=O)O)NC(=O)[C@H](CC(C)C)NC(=O)[C@H](CC(C)C)NC(=O)[C@H](CCC(=O)O)NC(=O)[C@H](CO)NC(=O)[C@H](Cc1ccc(O)cc1)NC(=O)[C@H](CC(=O)O)NC(=O)[C@H](CO)NC(=O)[C@@H](NC(=O)[C@H](Cc1ccccc1)NC(=O)[C@@H](NC(=O)CNC(=O)[C@H](CCC(=O)O)NC(=O)C(C)(C)NC(=O)[C@@H](N)Cc1c[nH]cn1)[C@@H](C)O)[C@@H](C)O)C(=O)N[C@@H](CCC(N)=O)C(=O)N[C@@H](Cc1c[nH]c2ccccc12)C(=O)N[C@@H](CC(C)C)C(=O)N[C@H](C(N)=O)C(C)C` [compound 199] (H-H[Aib]EGTFTSDYSELLEGAALQRFIQWLV-NH2), in series [1], the “Turbidity (pH 7)” value is 0.46. In series [2], this compound registered a Fibril formation of 260000. Also, the EC50 at GLP1R (setting [5]) is 0.0251 nM; on SCTR (setting [7]), 5.01 nM. In addition, at GLP1R (setting [6]), the “SCTR EC50/GLP1R EC50 ratio” value is recorded as 223.

As to `CC[C@H](C)[C@H](NC(=O)[C@H](Cc1ccccc1)NC(=O)[C@H](CCCNC(=N)N)NC(=O)[C@H](CCC(N)=O)NC(=O)[C@H](CC(C)C)NC(=O)[C@H](C)NC(=O)[C@H](C)NC(=O)CNC(=O)[C@H](CCC(=O)O)NC(=O)[C@H](CC(C)C)NC(=O)[C@H](CC(C)C)NC(=O)[C@@H](NC(=O)[C@H](CO)NC(=O)[C@@H]1CCCN1C(=O)[C@H](CC(=O)O)NC(=O)[C@H](CO)NC(=O)[C@@H](NC(=O)[C@H](Cc1ccccc1)NC(=O)[C@@H](NC(=O)CNC(=O)[C@H](CCC(=O)O)NC(=O)C(C)(C)NC(=O)[C@@H](N)Cc1c[nH]cn1)[C@@H](C)O)[C@@H](C)O)C(C)C)C(=O)N[C@@H](CCC(N)=O)C(=O)N[C@@H](Cc1c[nH]c2ccccc12)C(=O)N[C@@H](CC(C)C)C(=O)N[C@H](C(N)=O)C(C)C` [compound 129] (H-H[Aib]EGTFTSDPSVLLEGAALQRFIQWLV-NH2), in series [1], the “Turbidity (pH 7)” value worked out at 0.12. In series [2], this compound returned a Fibril formation of 5327. Further, the EC50 is 7.94 nM at GLP1R (setting [8]) and 10000 nM on SCTR (setting [10]). For the same compound, the “SCTR EC50/GLP1R EC50 ratio” value at GLP1R (setting [9]) is reported as 1220.

Take `CC(C)C[C@H](NC(=O)[C@H](Cc1ccccc1)NC(=O)[C@H](CCCNC(=N)N)NC(=O)[C@H](CCC(N)=O)NC(=O)C(C)(C)NC(=O)[C@H](C)NC(=O)[C@H](C)NC(=O)[C@H](Cc1ccccc1)NC(=O)[C@H](CCC(=O)O)NC(=O)[C@H](CCCCNC(=O)COCCOCCNC(=O)COCCOCCNC(=O)CC[C@H](NC(=O)CCCCCCCCCCCCCCCCCCC(=O)O)C(=O)O)NC(=O)[C@H](CC(C)C)NC(=O)[C@H](Cc1ccccc1)NC(=O)[C@H](CO)NC(=O)[C@@H](NC(=O)[C@H](CC(=O)O)NC(=O)[C@H](CO)NC(=O)[C@@H](NC(=O)[C@H](Cc1ccccc1)NC(=O)[C@@H](NC(=O)CNC(=O)[C@H](CCC(=O)O)NC(=O)C(C)(C)NC(=O)[C@@H](N)Cc1c[nH]cn1)[C@@H](C)O)[C@@H](C)O)C(C)C)C(=O)N[C@@H](CCC(=O)O)C(=O)N[C@@H](Cc1c[nH]cn1)C(=O)N[C@@H](CC(C)C)C(=O)N[C@H](C(N)=O)C(C)C` [compound 27] (H-H[Aib]EGTFTSDVSFLK([AEEA-AEEA-γGlu-C20 diacid])EFAA[Aib]QRFLEHLV-NH2): the “Turbidity (pH 7)” value in series [1] is 0.09. For the same compound, the Fibril formation in series [2] is reported as 16757. The Selectivity at GLP1R amounted to 33159. The EC50 is 0.1 nM at GLP1R (setting [3]) and 3160 nM at SCTR (setting [4]).

On to `CC[C@H](C)[C@H](NC(=O)[C@H](CC(=O)O)NC(=O)[C@H](CO)NC(=O)[C@@H](NC(=O)[C@H](Cc1ccccc1)NC(=O)[C@@H](NC(=O)CNC(=O)[C@H](CCC(=O)O)NC(=O)C(C)(C)NC(=O)[C@@H](N)Cc1c[nH]cn1)[C@@H](C)O)[C@@H](C)O)C(=O)N[C@@H](CO)C(=O)N[C@@H](Cc1ccc(O)cc1)C(=O)N[C@@H](CC(C)C)C(=O)N[C@@H](CCCCNC(=O)COCCOCCNC(=O)COCCOCCNC(=O)CC[C@H](NC(=O)CCCCCCCCCCCCCCCCCCC(=O)O)C(=O)O)C(=O)N[C@@H](CCC(=O)O)C(=O)N[C@@H](CCC(=O)O)C(=O)N[C@@H](C)C(=O)NC(C)(C)C(=O)N[C@@H](CC(C)C)C(=O)N[C@@H](CCC(N)=O)C(=O)N[C@@H](CCCNC(=N)N)C(=O)N[C@@H](Cc1ccccc1)C(=O)N[C@@H](CC(C)C)C(=O)N[C@@H](CCC(=O)O)C(=O)N[C@@H](Cc1c[nH]cn1)C(=O)N[C@@H](CC(C)C)C(=O)N[C@H](C(N)=O)C(C)C` [compound 114] (H-H[Aib]EGTFTSDISYLK([AEEA-AEEA-γGlu-C20 diacid])EEA[Aib]LQRFLEHLV-NH2), for which, in series [1], the “Turbidity (pH 7)” value was found to be 0.08. The Fibril formation in series [2] came to 4292. In addition, the EC50 was 0.01 nM at GLP1R (setting [8]) and 39.8 nM on SCTR (setting [10]). Besides, the “SCTR EC50/GLP1R EC50 ratio” value at GLP1R (setting [9]) amounted to 3608.

`CC(C)C[C@H](NC(=O)[C@H](Cc1ccccc1)NC(=O)[C@H](CCCNC(=N)N)NC(=O)[C@H](CCC(N)=O)NC(=O)[C@H](CO)NC(=O)[C@H](C)NC(=O)[C@H](C)NC(=O)[C@H](Cc1ccccc1)NC(=O)[C@H](CCC(=O)O)NC(=O)[C@H](CCCCNC(=O)COCCOCCNC(=O)COCCOCCNC(=O)CC[C@H](NC(=O)CCCCCCCCCCCCCCCCCCC(=O)O)C(=O)O)NC(=O)[C@H](CC(C)C)NC(=O)[C@H](CCC(=O)O)NC(=O)[C@H](CO)NC(=O)[C@@H](NC(=O)[C@H](CC(=O)O)NC(=O)[C@H](CO)NC(=O)[C@@H](NC(=O)[C@H](Cc1ccccc1)NC(=O)[C@@H](NC(=O)CNC(=O)[C@H](CCC(=O)O)NC(=O)C(C)(C)NC(=O)[C@@H](N)Cc1c[nH]cn1)[C@@H](C)O)[C@@H](C)O)C(C)C)C(=O)N[C@@H](CCC(=O)O)C(=O)N[C@@H](Cc1c[nH]cn1)C(=O)N[C@@H](CC(C)C)C(=O)N[C@H](C(N)=O)C(C)C` [compound 8] (H-H[Aib]EGTFTSDVSELK([AEEA-AEEA-γGlu-C20 diacid])EFAASQRFLEHLV-NH2): in series [1], the “Turbidity (pH 7)” value was 0.09. Also, in series [2], the Fibril formation is 259534. For the same compound, the Selectivity on GLP1R worked out at 30095. Also, the EC50 at GLP1R (setting [3]) was 0.0501 nM; on SCTR (setting [4]) it was 1580 nM.
